Values joined by “and” are separate entries in the source; they are usually repeats but may differ in a detail not shown here. Equal values may be shown once. “Also recorded” adds a separate entry of the source. Marks after values point to notes of the source that are not given here.
Legend:
Type in all cases: in vivo, human
[1] = system: term and late preterm subjects with hyperbilirubinemia; test: Phase 2b trial: need for phototherapy/exchange transfusion, time to PT, duration of PT, time to hospital discharge; conditions: for Time to discharge, Mean: from treatment; for Time to PT (range): subjects who needed PT
Protocol: PT was standardized for this study. TSB levels were initially assessed at 6 hours after IM injection to determine if PT was necessary. If the subject met the AAP Guidelines for starting PT, PT was initiated, and if the criteria were not met at the time, the subjects continued in the study until the next TSB level assessment (at 12, 24, and 48 hours following IMP injection). If, at any of these time points, the subject met the criteria for initiation of PT per AAP Guidelines, then PT was started.
In subjects receiving PT, determinations to assess whether or not PT was still required were done every 6 hours (±15 min); if the TSB was declining over 2 of these 6 hour assessments, TSB assessments could be done every 12 hours (±15 min). PT was stopped after 1 declining TSB assessment had been reviewed and the TSB level had declined to at least 2 mg/dL below the threshold for PT (as determined by the age of the subject when the blood was collected). As part of the clinical management of the subject, once PT was stopped, a TSB assessment was performed at approximately 6 hours later to assure there was no rebound in the bilirubin level. If the TSB rebounded above the threshold for PT, further clinical management was at the discretion of the principal investigator. After completion of Visit 4 (Day 30), parents/guardians were asked to enroll the completed subjects into a long term safety follow-up study.
The Secondary Efficacy Endpoints were the change from baseline in unadjusted TSB at 48 hours after treatment, change from baseline in adjusted and unadjusted TSB at various other time points after treatment, percent change from baseline in unadjusted TSB, proportion of subjects who require PT/exchange transfusion (ET), time to PT/ET, duration of PT and time to hospital discharge.
Analysis of Efficacy Parameters: The primary efficacy analysis applied the analysis of covariance (ANCOVA) method to determine if there was a significant difference between treatment groups in change in adjusted TSB levels from baseline to 48 hours post baseline after controlling for the effects of gestational age and adjusted baseline TSB levels. If assumptions of ANCOVA appeared to be violated, a Wilcoxon rank-sum test could be performed instead. Time-to-event variables were analyzed using the Kaplan-Meier method, and Kaplan-Meier survival curves were presented.

[2] = system: term and late preterm subjects with hyperbilirubinemia; test: Phase 2b trial: hematology and chemistry laboratory tests (platelet counts); conditions: for Platelet counts (mean), Delta: baseline to 48 hours
Source text: (§1) Safety measurements included adverse events (AEs), hematology and chemistry laboratory tests, vital sign measurements, physical examinations, dermatological assessments, hearing assessments, ophthalmological assessments, neurological assessments, and quantitative electrocardiograms (ECGs).
(§2) All other safety endpoints (vital sign measurements, hematology and chemistry laboratory tests, physical examination results, ECG results, etc.) were summarized by treatment group and visit. In addition, shift tables were generated for laboratory results comparing postbaseline results with baseline. Similar shift tables were generated for results of vital sign measurements.

[3] = system: term and late preterm subjects with hyperbilirubinemia; test: Phase 2b trial: quantitative electrocardiograms (QT)
Source text: In some embodiments, 12-Lead ECGs measurements comprise clarification of a cardiovascular event, measurement of cardiac intervals and morphological assessment, measurements of the RR, PR, QRS, and QT interval durations and combinations thereof. In some embodiments, Bazett's correction of the QT interval (QTcB), Fridericia's correction of the QT interval (QTcF), and heart rate (HR) can be derived from 12-Lead ECGs measurements.
as §1, §2

[4] = system: term and late preterm subjects with hyperbilirubinemia; test: Phase 2b trial: vital signs, physical, neurological, audiology and ophthalmological examinations
Source text: as §1, §2

[5] = 4.5 mg dose, baseline to 48 hours post dose

What does the source list for “tin IV mesoporphyrin IX dichloride [Stannsoporfin]”?
maximum duration of PT ([1]; 1.5 mg/kg): 1426 min; Duration of PT ([1]; 1.5 mg/kg IM): about 20 hours; Time to discharge, Range ([1]; 1.5 mg/kg IM): 14.6 to 143.3 h; subjects who received/required phototherapy (PT), n (%) ([1]; 1.5 mg/kg IM, N = 17): 3 (17.6%); Time to discharge, Mean ([1]; 1.5 mg/kg IM): 38 h; Time to PT (range) ([1]; 1.5 mg/kg IM): 5.2 to 17.8 h; maximum duration of PT ([1]; 3 mg/kg): 1140 min; Duration of PT ([1]; 3.0 mg/kg IM): about 14 hours; Time to discharge, Range ([1]; 3.0 mg/kg IM): 11.5 to 77.0 h; subjects who received/required phototherapy (PT), n (%) ([1]; 3.0 mg/kg IM, N = 18): 6 (33.3%); Time to discharge, Mean ([1]; 3.0 mg/kg IM): 42.8 h; Time to PT (range) ([1]; 3.0 mg/kg IM): 7.2 to 15.2 h; maximum duration of PT ([1]; 4.5 mg/kg): 990 min; Duration of PT ([1]; 4.5 mg/kg IM): about 14 hours; Time to discharge, Range ([1]; 4.5 mg/kg IM): 15 to 405.3 h; subjects who received/required phototherapy (PT), n (%) ([1]; 4.5 mg/kg IM, N = 8): 2 (25%); Time to discharge, Mean ([1]; 4.5 mg/kg IM): 48.3 h; Time to PT (range) ([1]; 4.5 mg/kg IM): 7.3 to 8.8 h; time to hospital discharge compared to placebo ([1]; 4.5 mg/kg, largely due to 1 subject with meningitis): significantly greater; exchange transfusions (ET) required ([1]; all dose groups): no exchange transfusions; also recorded: no subjects requiring ET; readmission to hospital ([1]; all stannsoporfin dose groups): No subjects who received stannsoporfin were readmitted; treated infants requiring subsequent phototherapy ([1]; single 1.5 mg/kg dose): 17.6%; Platelet counts (mean) ([2]; 1.5 mg/kg IM, 48 hours): 234.000; Platelet counts (mean) ([2]; 1.5 mg/kg IM, Day 14): 477,000; Platelet counts (mean), Delta ([2]; 1.5 mg/kg IM): −31,000; Platelet counts (mean) ([2]; 3.0 mg/kg IM, 48 hours): 220,000; Platelet counts (mean) ([2]; 3.0 mg/kg IM, Day 14): 453,000; Platelet counts (mean), Delta ([2]; 3.0 mg/kg IM): −43,000; Platelet count, individual subjects, % Change [2, 5]: 68.6% and 47.1% and 60.8% and 2.9% and 8.4% and 41.0%; Platelet count, individual subjects, Delta [2, 5]: −153,000 and −113,000 and −141,000 and −11,000 and −22,000 and −128,000; Platelet counts (mean) ([2]; 4.5 mg/kg IM, 48 hours): 180,000; Platelet counts (mean) ([2]; 4.5 mg/kg IM, Day 14): 441,000; Platelet counts (mean), Delta ([2]; 4.5 mg/kg IM): −85,000; Platelet count, individual subjects ([2]; 4.5 mg/kg dose, 48 hours post dose (n = 6)): 70,000* and 127,000† and 91,000** and 368,000 and 240,000 and 184,000†; platelets at 48 hours ([2]; 4.5 mg/kg, all subjects, normalized by Day 14): moderate drops in platelets; Chemistries, liver function tests and renal function tests ([2]; 1.5 to 4.5 mg/kg IM): normal; Platelet counts from baseline to 48 hours after administration ([2]; all stannsoporfin doses, placebo remained stable): decreased; average platelet counts by day 14 ([2]; all test groups): returned to the normal range; QT prolongation ([3]; 1.5 to 4.5 mg/kg IM): no QT prolongation; effect on heart rate, PR interval, RR interval, QRS complexes and QT interval ([3]; 1.5 to 4.5 mg/kg IM): no effect; ECG results compared to the placebo group ([3]; final data): no dose-related trends or marked differences; effect on vital signs (blood pressure, pulse, respiratory rate, temperature) ([4]; 1.5 to 4.5 mg/kg IM, preliminary data): no effect; mean pulse ([4]; 45 minutes after treatment, no longer observed at 1.5 hours): decrease in mean pulse; audiology examinations ([4]; screening, 48 hours after treatment/hospital discharge, or early termination, all subjects): normal

Reference: patent publication US20130158362A1 (INFACARE PHARMACEUTICAL CORPORATION, priority 2011, published 2013)
